Results as given in ChEMBL document CHEMBL1127112, “Synthesis and pharmacologic activity of hydroxyacetophenone-substituted benzophenone/xanthone leukotriene B4 receptor antagonists” (Bioorg Med Chem Lett, 1993).

Species: Homo sapiens
Assay: Compound was evaluated for inhibition of LTB4 induced chemotaxis of human neutrophils
Assay type: functional

Row | IC50 [µM] | Compound
1 | 0.32 | CCc1cc(C(C)=O)c(O)cc1OCCCOc1ccc2c(=O)c3cc(C(=O)O)ccc3oc2c1CCC(=O)O
2 | 6 | COc1ccc(/C=C/CCCCOc2ccc(C(=O)c3cccc(C(=O)O)c3)cc2CCC(=O)O)cc1
3 | 16 | CCc1cc(C(C)=O)c(O)cc1OCCCOc1ccc(C(=O)c2cccc(C(=O)O)c2)cc1CCC(=O)O
4 | 7.4 | CCc1cc(C(C)=O)c(O)cc1OCCCCCC(C)(C)c1nn[nH]n1 [LY-255283]
